{"source": "patent US7977056B2", "about": "“Methods of identifying stimulants for biogenic methane production from hydrocarbon-bearing formations” (Synthetic Genomics, Inc., priority 2008, dated 2011)", "note": "Entries after “also recorded” stand apart in the source; their conditions may differ.", "data": [{"test_system": "defined microbial assemblage", "test": "Stimulation of methane production by a defined microbial assemblage grown on coal as sole carbon source", "type": "cell-based", "conditions": "defined microbial assemblage, in vitro culture with coal as sole carbon source, after stimulation with the substance", "experimental": "(§1) The availability of a defined microbial assemblage producing methane from coal in vitro, as well as a suite of strains capable of aerobic coal degradation prompted laboratory experiments where various stimulants were tested for their effect on methane production.\n(§2) This degradation is stimulated by the addition of oxygen as reactant for the oxygenase-classes of enzymes present in some of the strains included in the DMA.", "values": [{"smiles": "[HH]", "note": "[H2, hydrogen]", "methane production": "increased methane production"}, {"smiles": "CC(=O)O", "note": "[acetate]", "methane production": "increased methane production"}, {"smiles": "OCC(O)CO", "note": "[glycerol]", "methane production": "increased methane production"}, {"smiles": "O=O", "note": "[oxygen]", "methane production": "greatest increase in methane production; also recorded: increased methane production"}, {"smiles": "CN(C)C", "note": "[trimethylamine]", "methane production": "increased methane production"}]}, {"test_system": "defined microbial assemblage", "test": "Stimulation of methane production by a defined microbial assemblage grown on coal as sole carbon source", "type": "cell-based", "conditions": "oxygen applied at higher than optimal levels", "experimental": "as §1, §2", "values": [{"smiles": "O=O", "note": "[oxygen]", "methanogenesis": "represses methanogenesis"}]}]}
